# Settings: Liquid, Closed cell (Static) method
smiles,measurement,setting,value
CCO[Si](CC)(OCC)OCC [ethyltriethoxysilane],vapor or sublimation pressure,335 K,2.325 kPa
same,vapor or sublimation pressure,340.8 K,3.325 kPa
same,vapor or sublimation pressure,346.2 K,4.325 kPa
same,vapor or sublimation pressure,350.4 K,5.325 kPa
same,vapor or sublimation pressure,359.9 K,8.325 kPa
same,vapor or sublimation pressure,367.1 K,11.32 kPa
same,vapor or sublimation pressure,372.9 K,14.32 kPa
same,vapor or sublimation pressure,377.7 K,17.32 kPa
same,vapor or sublimation pressure,382 K,20.32 kPa
same,vapor or sublimation pressure,385.8 K,23.32 kPa
same,vapor or sublimation pressure,389 K,26.33 kPa
same,vapor or sublimation pressure,392 K,29.32 kPa
same,vapor or sublimation pressure,394.8 K,32.33 kPa
same,vapor or sublimation pressure,397.4 K,35.33 kPa
same,vapor or sublimation pressure,399.9 K,38.32 kPa
same,vapor or sublimation pressure,402.2 K,41.33 kPa
same,vapor or sublimation pressure,404.1 K,44.33 kPa
same,vapor or sublimation pressure,405.5 K,47.32 kPa
same,vapor or sublimation pressure,407.6 K,50.33 kPa
same,vapor or sublimation pressure,410.1 K,53.32 kPa
same,vapor or sublimation pressure,411.9 K,56.33 kPa
same,vapor or sublimation pressure,413.7 K,59.33 kPa
same,vapor or sublimation pressure,415.4 K,62.32 kPa
same,vapor or sublimation pressure,416.8 K,65.32 kPa
same,vapor or sublimation pressure,418.3 K,68.33 kPa
same,vapor or sublimation pressure,419.4 K,71.33 kPa
same,vapor or sublimation pressure,420.6 K,74.33 kPa
same,vapor or sublimation pressure,421.8 K,77.33 kPa
same,vapor or sublimation pressure,423.7 K,80.32 kPa
same,vapor or sublimation pressure,425.4 K,83.33 kPa
same,vapor or sublimation pressure,426.7 K,86.33 kPa
same,vapor or sublimation pressure,427.9 K,89.33 kPa
same,vapor or sublimation pressure,429.1 K,92.33 kPa
same,vapor or sublimation pressure,430.2 K,95.32 kPa
same,vapor or sublimation pressure,431.3 K,98.32 kPa
same,vapor or sublimation pressure,432 K,100.33 kPa
